From US8642622B2, “Piperidinyl compound as a modulator of chemokine receptor activity” (Bristol-Myers Squibb Company, priority 2010, dated 2014)

Legend:
[1] = Human liver microsomal metabolism, Assay Conditions B; type: in vitro ADME
Description: Test compound is received as 20 mM in DMSO. Compound is diluted to create a 300 μM acetonitrile (ACN) solution containing 1.5% DMSO, which is then used as a 100× stock for incubation with microsomes. Each compound is tested in duplicate separately in each of three species in the Metabolic Stability-Human, Rat, Mouse assay suite or individual species in the Metabolic Stability-Dog or Metabolic Stability-Monkey suites. Compound, NADPH and liver microsome solutions are combined for incubation in three steps: • 1. 450 μL of liver microsome suspension, protein concentration of 1 mg/mL in 100 mM NaPi, pH 7.4, 6.6 mM MgCl2 buffer, are pre-warmed at 37° C. • 2. […] of 300 μM compound (98.5% CAN, 1.5% DMSO) is added to the same tube. • 3. The reaction is initiated by the addition of 50 μL of pre-warmed 5 mM NADPH solution in 100 mM NaPi, pH 7.4.
Reaction components are mixed well and 150 μL removed to quench/stop solution immediately for the zero-minute time point. Reactions are incubated at 37° C. for 10 minutes and then an additional 150 μL removed from incubation. Aliquots removed are combined with 300 μL ACN which contains 100 μM DMN as a UV standard for detection.
Quenched mixtures are centrifuged at 1500 rpm (˜500×g) in an Allegra X-12 centrifuge, SX4750 rotor (Beckman Coulter Inc., Fullerton, Calif.) for fifteen minutes to pellet denatured microsomes. A volume of 110 μl of supernatant extract, containing the mixture of parent compound and its metabolites, is then transferred to a separate 96-well plate for UV-LC/MS-MS analysis to determine the percent of parent compound that is remaining in the mixture.

[2] = Single-dose pharmacokinetics in dogs; type: in vivo; conditions: dog
Description: Serial blood samples were collected for all studies at various time points post dose (0.17 (or 0.25 for oral), 0.5, 0.75, 1, 2, 4, 6, 8 and 24 h, for example). Plasma samples were analyzed by LC-MS/MS.

[3] = molecular target: T1, human cardiac L-type Ca channel (α1C) and its β subunit (Homo sapiens, UniProt Q13936); test: L-type calcium channel whole-cell patch-clamp assay; type: cell-based; conditions: @ 30 μM, HEK-293, protein-free buffer
T1 construct: expressed in transfected cells
T1 sequence (Q13936 whole entry): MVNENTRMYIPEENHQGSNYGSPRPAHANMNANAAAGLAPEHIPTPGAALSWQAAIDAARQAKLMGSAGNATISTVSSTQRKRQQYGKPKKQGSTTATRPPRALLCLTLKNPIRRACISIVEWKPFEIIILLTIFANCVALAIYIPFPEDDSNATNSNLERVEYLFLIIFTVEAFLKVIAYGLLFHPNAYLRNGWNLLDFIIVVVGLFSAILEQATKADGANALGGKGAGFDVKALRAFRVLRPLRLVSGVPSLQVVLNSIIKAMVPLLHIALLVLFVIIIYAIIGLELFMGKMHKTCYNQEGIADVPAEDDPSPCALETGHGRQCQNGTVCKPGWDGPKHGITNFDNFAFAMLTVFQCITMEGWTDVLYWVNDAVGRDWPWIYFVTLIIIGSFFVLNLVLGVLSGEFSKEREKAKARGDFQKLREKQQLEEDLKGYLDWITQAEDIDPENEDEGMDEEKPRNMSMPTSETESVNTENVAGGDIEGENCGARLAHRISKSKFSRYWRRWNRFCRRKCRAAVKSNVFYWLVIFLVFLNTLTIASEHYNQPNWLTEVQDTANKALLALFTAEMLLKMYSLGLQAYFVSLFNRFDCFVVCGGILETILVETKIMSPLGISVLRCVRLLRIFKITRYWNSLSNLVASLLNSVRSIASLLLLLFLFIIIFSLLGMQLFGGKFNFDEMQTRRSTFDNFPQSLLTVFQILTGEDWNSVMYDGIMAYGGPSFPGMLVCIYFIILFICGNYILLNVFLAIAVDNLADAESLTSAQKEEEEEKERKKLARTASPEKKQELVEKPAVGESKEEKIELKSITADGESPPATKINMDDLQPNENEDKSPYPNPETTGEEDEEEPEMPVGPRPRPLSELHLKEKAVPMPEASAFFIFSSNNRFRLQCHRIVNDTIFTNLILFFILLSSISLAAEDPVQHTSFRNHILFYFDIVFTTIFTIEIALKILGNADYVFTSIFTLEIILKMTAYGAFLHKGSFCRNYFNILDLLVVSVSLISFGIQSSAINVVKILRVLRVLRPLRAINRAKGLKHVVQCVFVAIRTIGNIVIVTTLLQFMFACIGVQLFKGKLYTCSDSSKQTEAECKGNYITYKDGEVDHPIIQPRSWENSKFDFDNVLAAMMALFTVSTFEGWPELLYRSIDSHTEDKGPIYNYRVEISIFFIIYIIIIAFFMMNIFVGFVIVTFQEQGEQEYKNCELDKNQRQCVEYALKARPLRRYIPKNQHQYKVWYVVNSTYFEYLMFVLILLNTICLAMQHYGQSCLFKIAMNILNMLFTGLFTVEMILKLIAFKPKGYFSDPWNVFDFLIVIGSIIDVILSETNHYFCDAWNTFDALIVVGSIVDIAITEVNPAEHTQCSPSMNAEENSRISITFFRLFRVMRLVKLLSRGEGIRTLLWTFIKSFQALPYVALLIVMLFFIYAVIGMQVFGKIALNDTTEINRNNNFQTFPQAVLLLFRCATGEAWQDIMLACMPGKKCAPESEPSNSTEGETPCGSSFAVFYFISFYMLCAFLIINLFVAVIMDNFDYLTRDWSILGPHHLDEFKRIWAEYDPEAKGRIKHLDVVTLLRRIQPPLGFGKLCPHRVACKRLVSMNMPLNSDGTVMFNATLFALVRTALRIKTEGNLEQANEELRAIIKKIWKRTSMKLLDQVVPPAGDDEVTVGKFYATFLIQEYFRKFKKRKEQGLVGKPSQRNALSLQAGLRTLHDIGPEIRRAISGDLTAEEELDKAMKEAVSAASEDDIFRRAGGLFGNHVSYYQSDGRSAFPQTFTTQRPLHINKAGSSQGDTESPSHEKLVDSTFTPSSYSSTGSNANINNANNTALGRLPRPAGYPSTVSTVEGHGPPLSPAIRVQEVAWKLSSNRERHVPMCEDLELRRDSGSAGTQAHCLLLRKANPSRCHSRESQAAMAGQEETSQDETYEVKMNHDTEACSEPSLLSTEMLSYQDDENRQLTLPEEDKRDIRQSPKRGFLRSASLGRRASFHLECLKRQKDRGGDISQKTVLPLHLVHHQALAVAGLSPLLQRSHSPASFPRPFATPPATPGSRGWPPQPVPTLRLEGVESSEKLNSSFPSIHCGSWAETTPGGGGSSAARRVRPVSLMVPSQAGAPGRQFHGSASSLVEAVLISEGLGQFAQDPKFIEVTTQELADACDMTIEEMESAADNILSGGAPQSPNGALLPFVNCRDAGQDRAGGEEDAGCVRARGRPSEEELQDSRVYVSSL
T1 sequence (Q08289 whole entry partner): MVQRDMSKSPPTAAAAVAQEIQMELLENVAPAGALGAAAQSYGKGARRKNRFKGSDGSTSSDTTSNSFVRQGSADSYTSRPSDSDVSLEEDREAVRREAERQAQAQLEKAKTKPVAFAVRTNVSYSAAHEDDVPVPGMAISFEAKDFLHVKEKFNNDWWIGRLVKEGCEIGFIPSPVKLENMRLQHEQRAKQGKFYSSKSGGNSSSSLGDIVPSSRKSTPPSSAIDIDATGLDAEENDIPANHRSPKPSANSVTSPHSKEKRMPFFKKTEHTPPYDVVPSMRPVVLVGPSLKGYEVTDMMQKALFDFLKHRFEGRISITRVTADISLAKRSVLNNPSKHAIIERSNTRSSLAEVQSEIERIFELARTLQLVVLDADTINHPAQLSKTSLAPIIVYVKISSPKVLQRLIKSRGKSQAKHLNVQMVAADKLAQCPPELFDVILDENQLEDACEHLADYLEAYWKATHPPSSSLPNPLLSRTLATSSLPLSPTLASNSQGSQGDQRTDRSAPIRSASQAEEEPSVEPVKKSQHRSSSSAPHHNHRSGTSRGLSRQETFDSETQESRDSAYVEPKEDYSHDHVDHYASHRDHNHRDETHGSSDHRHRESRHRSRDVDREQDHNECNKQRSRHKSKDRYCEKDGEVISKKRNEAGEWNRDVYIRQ
Description: In addition to the potential for interaction with the L-type calcium channel, whole-cell patch-clamp was used to directly measure inward calcium currents in HEK-293 cells stably expressing the cloned human cardiac L-type Ca channel (α1C) and its β subunit. Effects of compounds were calculated by measuring inhibition of peak current. Experiments were carried out using an aqueous buffer at pH 7.4 and at room temperature. There is no protein in the buffer and drug concentrations reported are nominal free drug levels. Data is reported as percent inhibition at a fixed concentration.

[4] = Human liver microsomal metabolism, Assay Conditions A; type: in vitro ADME; conditions: 0.5 μM compound, 10 minutes, 37° C.
Description: Test compound is received as a 3.5 mM stock solution in 100 percent DMSO. Compound is diluted to create a 50 μM acetonitrile (ACN) solution containing 1.4% DMSO, which is then used as a 100× stock for incubation with microsomes. Each compound is tested in duplicate separately in each of three species in the Metabolic Stability-Human, Rat, and Mouse assay suite or as individual species in the Metabolic Stability-Dog or Metabolic Stability-Monkey suites. Compound, NADPH and liver microsome solutions are combined for incubation in three steps:
152 μL of liver microsome suspension, protein concentration of 1.1 mg/mL in 100 mM NaPi, pH 7.4, 6.6 mM MgCl2 buffer, is pre-warmed at 37° C.
• 1) 1.7 μL of 50 μM compound (98.6% ACN, 1.4% DMSO) is added to the same tube and pre-incubated at 37° C. for 5 minutes. • 2) The reaction is initiated by the addition of 17 μL of pre-warmed 10 mM NADPH solution in 100 mM NaPi, pH 7.4. • 3) Reaction components are mixed well, and 75 μL are immediately transferred into 150 μl quench/stop solution (zero-time point, To). Reactions are incubated at 37° C. for 10 minutes and then an additional 75 μL aliquot is transferred into 150 μL quench solution. Acetonitrile containing 100 μM DMN (a UV standard for injection quality control), is used as the quench solution to terminate metabolic reactions. • 4) Quenched mixtures are centrifuged at 1500 rpm (˜500×g) in an Allegra X-12 centrifuge, SX4750 rotor (Beckman Coulter Inc., Fullerton, Calif.) for fifteen minutes to pellet denatured microsomes. A volume of 90 μL of supernatant extract, containing the mixture of parent compound and its metabolites, is then transferred to a separate 96-well plate for UV-LC/MS-MS analysis to determine the percent of parent compound that is remaining in the mixture.

Row | Human Liver Microsomal Metabolism % remaining (Assay Conditions A) [4] | SMILES | Human Liver Microsomal Metabolism % remaining (Assay Conditions B) ([1]; 3 μM compound, 10 minutes, 37° C.) | % of compound remaining in the human liver microsome metabolism assay ([1]; assay conditions not given) [%] | decrease of in vivo clearance (CL) relative to the compared compounds [2] | clearance ([2]; male, beagle, plasma, intravenous) [mL/min/kg] | bioavailability ([2]; male, beagle, plasma, oral solution, read-out: dog oral bioavailability when dosed as solution) [%] | Ca channel, % inh [3] [% @ 30 μM]
1 | – | CC(C)[C@@H](NC(=O)[C@@H]1CCC(F)(F)C1)C(=O)N1CC[C@](O)(c2ccc(Cl)cc2)[C@@](C)(O)C1 [Compound I, (R)—N—((R)-1-((3S,4S)-4-(4-chlorophenyl)-3,4-dihydroxy-3-methylpiperidin-1-yl)-3-methyl-1-oxobutan-2-yl)-3,3-difluorocyclopentanecarboxamide] | 96% (B) | 100 | 8-13 fold | 0.6 | 82 | 29
2 | 13% (A) | CC(C)COC(=O)N[C@@H](C(=O)N1CC[C@](O)(c2ccc(Cl)cc2)C(C)(C)C1)C(C)C [Example 1083] | – | – | – | – | – | –
